Structures can show the parent of a compound that is named as a salt.
Conditions: instrument: TW, calibrated with polyalanine and drug standards

## Cc1nc2ccccn2c(=O)c1CCN1CCC(C(=O)c2ccc(F)cc2)CC1 [PIRENPERONE]
[M+H]+
  collision cross section (N2): 196.8 Å²

## CC1=CC(=O)c2c(O)cccc2C1=O [PLUMBAGIN]
[M+H]+
  collision cross section (N2): 124.1 Å²

## COc1cc([C@@H]2c3cc4c(cc3[C@H](O)[C@H]3COC(=O)[C@H]23)OCO4)cc(OC)c1OC [PODOFILOX]
[M+H-H2O]+
  collision cross section (N2): 190.1 Å²
[M+H]+
  collision cross section (N2): 189.6 Å²

## O=C(C1CCCCC1)N1CC(=O)N2CCc3ccccc3C2C1 (stereo not given) [PRAZIQUANTEL]
[M+H]+
  collision cross section (N2): 176.5 Å²

## C[C@]12C=CC(=O)C=C1CC[C@@H]1[C@@H]2[C@@H](O)C[C@@]2(C)[C@H]1CC[C@]2(O)C(=O)COC(=O)CCC(=O)O [PREDNISOLONE HEMISUCCINATE]
[M+H]+
  collision cross section (N2): 210.3 Å²

## COC(=O)[C@]1(C)CC[C@]2(C)CC[C@]3(C)C4=CC=C5C(=CC(=O)C(O)=C5C)[C@]4(C)CC[C@@]3(C)[C@@H]2C1 [PRISTIMERIN]
[M+H]+
  collision cross section (N2): 211.2 Å²

## CCCN(CCC)S(=O)(=O)c1ccc(C(=O)O)cc1 [PROBENECID]
[M+H]+
  collision cross section (N2): 161.4 Å²

## CCN(CC)CCOC(=O)c1ccc(N)cc1 [PROCAINE]
[M+H]+
  collision cross section (N2): 154.7 Å²

## CNCCCC1c2ccccc2C=Cc2ccccc21 [PROTRYPTYLINE HYDROCHLORIDE]
[M+H]+
  collision cross section (N2): 162.8 Å²

## CC(O)Cn1cnc2c1c(=O)n(C)c(=O)n2C (stereo not given) [PROXYPHYLLINE]
[M+H]+
  collision cross section (N2): 149.1 Å²

## O=c1c(-c2ccc(O)cc2)coc2c([C@@H]3O[C@H](CO)[C@@H](O)[C@H](O)[C@H]3O)c(O)ccc12 [PUERARIN]
[M+H]+
  collision cross section (N2): 196.4 Å²

## OCCOCCN1CCN(C2=Nc3ccccc3Sc3ccccc32)CC1 [QUETIAPINE]
[M+H]+
  collision cross section (N2): 191.5 Å²

## COC(=O)[C@H](Cc1ccccc1)NC(=O)/C(=C1\OC(=O)C(c2ccccc2)=C1O)c1ccccc1 [RHIZOCARPIC ACID]
[M+H]+
  collision cross section (N2): 212.8 Å²

## CO[C@H]1/C=C/O[C@@]2(C)Oc3c(C)c(O)c4c(c3C2=O)C(=O)/C(=C/NN2CCN(C)CC2)C(=C4O)NC(=O)/C(C)=C\C=C\[C@H](C)[C@H](O)[C@@H](C)[C@@H](O)[C@@H](C)[C@H](OC(C)=O)[C@@H]1C [RIFAMPIN]
[M+H]+
  collision cross section (N2): 280.3 Å²

## COc1ccc(-c2c(O)c3c(OC)c4c(cc3oc2=O)OC(C)(C)C=C4)cc1 [ROBUSTIC ACID]
[M+H]+
  collision cross section (N2): 190.3 Å²

## CC[C@H]1OC(=O)[C@H](C)[C@@H](O[C@H]2C[C@@](C)(OC)[C@@H](O)[C@H](C)O2)[C@H](C)[C@@H](O[C@@H]2O[C@H](C)C[C@H](N(C)C)[C@H]2O)[C@](C)(O)C[C@@H](C)/C(=N\OCOCCOC)[C@H](C)[C@@H](O)[C@]1(C)O [ROXITHROMYCIN]
[M+H]+
  collision cross section (N2): 276.1 Å²

## C[C@@H]1O[C@@H](OC[C@H]2OC(Oc3c(-c4ccc(O)c(O)c4)oc4cc(O)cc(O)c4c3=O)[C@H](O)[C@@H](O)[C@@H]2O)[C@H](O)[C@H](O)[C@H]1O (stereo not given in full) [RUTOSIDE  (rutin)]
[M+H]+
  collision cross section (N2): 230.7 Å²

## COc1ccc2c(c1O)-c1c(OC)c(OC)cc3c1[C@H](C2)N(C)CC3 [S-ISOCORYDINE (+)]
[M+H]+
  collision cross section (N2): 181.9 Å²

## C=CCc1ccc2c(c1)OCO2 [SAFROLE]
[M+H]+
  collision cross section (N2): 138.6 Å²

## O=C(Nc1ccccc1)c1ccccc1O [SALICYLANILIDE]
[M+H]+
  collision cross section (N2): 143.9 Å²

## CC1=C2[C@H]3OC(=O)[C@@H](C)[C@@H]3CC[C@@]2(C)C=CC1=O [SANTONIN]
[M+H]+
  collision cross section (N2): 154.9 Å²

## COc1ccc2c(c1)OC/C(=C\c1ccc(OC)c(O)c1)C2=O [SAPPANONE A DIMETHYL ETHER]
[M+H]+
  collision cross section (N2): 170.3 Å²

## COc1cc2ccc(=O)oc2cc1O [SCOPOLETIN]
[M+H]+
  collision cross section (N2): 133.6 Å²

## CCC(C)(C)C(=O)O[C@H]1C[C@@H](C)C=C2C=C[C@H](C)[C@H](CC[C@@H]3C[C@@H](O)CC(=O)O3)[C@H]21 [SIMVASTATIN]
[M+H-H2O]+
  collision cross section (N2): 199.6 Å²

## CC(=O)O[C@H]1CC[C@@]2(C)[C@H](CC[C@@H]3[C@@H]2CC[C@]2(C)[C@@H]4[C@H](C[C@@H]32)O[C@]2(CC[C@@H](C)CO2)[C@H]4C)C1 [SMILAGENIN ACETATE]
[M+H]+
  collision cross section (N2): 222.1 Å²

## CC1=CC(=O)[C@H]2C(C)(C)CCC[C@]2(C)[C@@]1(O)CCc1ccoc1 [SOLIDAGENONE]
[M+H-H2O]+
  collision cross section (N2): 170.6 Å²

## COc1cc2ccc(=O)oc2c2ccoc12 [SPHONDIN]
[M+H]+
  collision cross section (N2): 139.9 Å²

## O=C(CCCN1CCC2(CC1)C(=O)NCN2c1ccccc1)c1ccc(F)cc1 [SPIPERONE]
[M+H]+
  collision cross section (N2): 193.8 Å²

## CC[C@H](/C=C/[C@@H](C)[C@H]1CC[C@H]2[C@@H]3CCC4=CC(=O)CC[C@]4(C)[C@H]3CC[C@]12C)C(C)C [STIGMASTA-4,22-DIEN-3-ONE]
[M+H]+
  collision cross section (N2): 218.5 Å²

## Nc1ccc(S(=O)(=O)NC(=O)c2ccccc2)cc1 [SULFABENZAMIDE]
[M+H]+
  collision cross section (N2): 158.2 Å²

## Nc1ccc(S(=O)(=O)Nc2ccc(Cl)nn2)cc1 [SULFACHLORPYRIDAZINE]
[M+H]+
  collision cross section (N2): 158.2 Å²

## COc1cc(NS(=O)(=O)c2ccc(N)cc2)nc(OC)n1 [SULFADIMETHOXINE]
[M+H]+
  collision cross section (N2): 167.7 Å²

## Cc1ccnc(NS(=O)(=O)c2ccc(N)cc2)n1 [SULFAMERAZINE]
[M+H]+
  collision cross section (N2): 156.3 Å²

## Cc1nnc(NS(=O)(=O)c2ccc(N)cc2)s1 [SULFAMETHIZOLE]
[M+H]+
  collision cross section (N2): 155.2 Å²

## Cc1cc(NS(=O)(=O)c2ccc(N)cc2)no1 [SULFAMETHOXAZOLE]
[M+H]+
  collision cross section (N2): 151.4 Å²

## COc1ccc(NS(=O)(=O)c2ccc(N)cc2)nn1 [SULFAMETHOXYPYRIDAZINE]
[M+H]+
  collision cross section (N2): 159.4 Å²

## COc1cc(NS(=O)(=O)c2ccc(N)cc2)ncn1 [SULFAMONOMETHOXINE]
[M+H]+
  collision cross section (N2): 159.5 Å²

## Nc1ccc(S(=O)(=O)Nc2ccccn2)cc1 [SULFAPYRIDINE]
[M+H]+
  collision cross section (N2): 151.6 Å²

## O=C(O)C1=C/C(=N/Nc2ccc(S(=O)(=O)Nc3ccccn3)cc2)C=CC1=O [SULFASALAZINE]
[M+H]+
  collision cross section (N2): 200.4 Å²

## CC(=O)N(c1onc(C)c1C)S(=O)(=O)c1ccc(N)cc1 [SULFISOXAZOLE ACETYL]
[M+H]+
  collision cross section (N2): 161.2 Å²

## CC1=C(CC(=O)O)c2cc(F)ccc2/C1=C\c1ccc(S(C)=O)cc1 (stereo not given) [SULINDAC]
[M+H]+
  collision cross section (N2): 191.6 Å²

## COc1cc(S(C)=O)ccc1-c1nc2ncccc2[nH]1 (stereo not given) [SULMAZOLE]
[M+H]+
  collision cross section (N2): 166.4 Å²

## CC(C(=O)O)c1ccc(C(=O)c2cccs2)cc1 (stereo not given) [SUPROFEN]
[M+H]+
  collision cross section (N2): 157.2 Å²

## CCCCC1(COC(=O)CCC(=O)O)C(=O)N(c2ccccc2)N(c2ccccc2)C1=O [SUXIBUZONE]
[M+H]+
  collision cross section (N2): 199.3 Å²

— the C3SDB collision cross section collection
